The values below come from patent US20210317099A1, “SAFER, POTENT, AND FAST ACTING ANTIMICROBIAL AGENTS” (Purdue Research Foundation, priority 2020, published 2021).

Experiment in all cases: In vitro cytotoxicity, MTS assay
Common to all, as to type: cell-based
In general terms: Formazan colour is commonly taken as a measure of viable cells.

For series [1], the system named is human colorectal adenocarcinoma (Caco-2) cell. As for the experimental part: Compounds 144, 148, 151, 155, 158, and 187 were assayed (at concentrations of 16, 32, and 64 μg/mL) against a human colorectal adenocarcinoma (Caco-2) cell to determine the potential toxic effect to mammalian cells in vitro. Briefly, cells were cultured in Dulbecco's Modified Eagle Medium (DMEM) supplemented with 10% fetal bovine serum (FBS), non-essential amino acids (1×), penicillin-streptomycin at 37° C. in presence of 5% CO2. Control cells received DMSO alone at a concentration equal to that in drug-treated wells. The cells were incubated with the compounds (in triplicate) in a 96-well plate at 37° C. with 5% CO2 for two hours. This was followed by the subsequent addition of the assay reagent MTS 3-(4,5-dimethylthiazol-2-yl)-5-(3-carboxymethoxyphenyl)-2-(4-sulfophenyl)-2H-tetrazolium) (Promega, Madison, Wis., USA) and the plate was incubated for three to four hours. Absorbance readings (at OD490) were recorded using a kinetic microplate reader (Molecular Devices, Sunnyvale, Calif., USA). The quantity of viable cells after treatment with each compound was expressed as a percentage of the viability of DMSO-treated control cells (average of triplicate wells±standard deviation).
FIG. 3. Analyzing the toxicity of 144, 148, 151, 155, 158, and 187 compounds (tested in triplicates at 16, 32 and 64 μg/mL) against human colorectal cells (Caco-2) using the MTS 3-(4,5-dimethylthiazol-2-yl)-5-(3-carboxymethoxyphenyl)-2-(4-sulfophenyl)-2H-tetrazolium) assay. Results are presented as percent viable cells relative to DMSO (negative control) to determine a baseline measurement for the cytotoxic impact of each compound. The absorbance values represent an average of three samples analyzed for each compound. Error bars represent standard deviation values. The data were analyzed via a two-way ANOVA with post-hoc Dunnett's test for multiple comparisons. An asterisk (*) denotes statistical significance (P<0.05) between results for compounds and DMSO.

Series [2] relates to murine macrophage (J774) cell line. Conditions: J774, 24 hours incubation. On the procedure: Compounds were assayed against a murine macrophage (J774) cell line to determine their in vitro potential toxic effect. Cells were cultured in Dulbecco's Modified Eagle Medium (DMEM) supplemented with 10% FBS at 37° C. with 5% CO2. Control cells received DMSO alone at a concentration equal to that in drug-treated cell samples. The cells were incubated with the compounds (in triplicate) in a 96-well plate at 37° C. with 5% CO2 for 24 hours. The assay reagent MTS; 3-(4,5-dimethylthiazol-2-yl)-5-(3-carboxymethoxyphenyl)-2-(4-sulfophenyl)-2H-tetrazolium) (Promega, Madison, Wis., USA) was subsequently added and the plate was incubated for three to four hours. Absorbance readings (at OD490) were recorded using a kinetic microplate reader (Molecular Devices, Sunnyvale, Calif., USA). The quantity of viable cells after treatment with each compound was expressed as a percentage of the viability relative to DMSO-treated control cells (average of triplicate wells±standard deviation). FIG. 5. […] Results are presented as percent viable mammalian cells (measured as average absorbance ratio relative to DMSO). The absorbance values represent an average of a minimum of three samples analyzed for each compound. Error bars represent standard deviation values for the absorbance values.

For series [3], the system named is human keratinocytes cell line (HaCaT cells). Conditions: 2 h. On the procedure: Compounds 144, 148, 149, 151, 155, and 158 were assayed (at concentrations of 16, 32, and 64 μg/mL) against a human keratinocytes cell line (HaCaT cells) to determine their in vitro potential toxic effect. Briefly, cells were cultured in Dulbecco's Modified Eagle Medium (DMEM) supplemented with 10% fetal bovine serum (FBS) and penicillin-streptomycin at 37° C. in presence of 5% CO2. Compounds were added in the first row of the 96-well plate. Control cells received DMSO alone at a concentration equivalent to that in drug-treated wells. The cells were incubated with the compounds (in triplicate) in a 96-well plate at 37° C. in presence of 5% CO2 for two hours. The assay reagent MTS 3-(4,5-dimethylthiazol-2-yl)-5-(3-carboxymethoxyphenyl)-2-(4-sulfophenyl)-2H-tetrazolium) (Promega, Madison, Wis., USA) was subsequently added and the plate was incubated for three to four hours. Absorbance readings (at OD490) were recorded using a kinetic microplate reader (Molecular Devices, Sunnyvale, Calif., USA). The quantity of viable cells after treatment with each compound was expressed as a percentage of the viability to DMSO-treated control cells (average of triplicate wells±standard deviation).
FIG. 2. Analyzing the toxicity of compounds 144, 148, 149, 151, 155 and 158 (tested in triplicates at 16, 32 and 64 μg/mL) against human keratinocytes cells (HaCaT) using the MTS 3-(4,5-dimethylthiazol-2-yl)-5-(3-carboxymethoxyphenyl)-2-(4-sulfophenyl)-2H-tetrazolium) assay. Results are presented as percent viable cells relative to DMSO (negative control to determine a baseline measurement for the cytotoxic impact of each compound). The absorbance values represent an average of three samples analyzed for each compound. Error bars represent standard deviation values. The data were analyzed via a two-way ANOVA with post-hoc Dunnett's test for multiple comparisons. An asterisk (*) denotes statistical significance (P<0.05) between results for compounds and DMSO.

Some results are limits rather than exact numbers.

For the compound `C=C1C(=O)O[C@H](c2cccc3ccccc23)[C@@H]1c1ccc2ccccc2c1` [Compound 155], the viable cells in series [1] (Caco-2, at 32 μg/mL, relative to DMSO) was 100%. Further, the “non-toxic concentration to Caco-2 cells” value in series [1] (Caco-2, two hours incubation, MTS) is ≤ 32 µg/mL.
As for `C=C(C(=O)OC)C(c1ccc2ccccc2c1)C(O)c1cccc2ccccc12` (stereo not shown) [Compound 148], in series [2], the “concentration tolerable to J774 cells” value was ≤ 8000 ng/mL.
Take `C=C1C(=O)O[C@H](c2ccccc2)[C@@H]1c1cccc2ccccc12` [Compound 151]: in series [3], the “tolerable concentration as multiple of MIC against MRSA” value is 16 to 32 times.
